Consider 23 molecules from patent US9156796B2, “Benzoimidazole-carboxylic acid amide derivatives as APJ receptor modulators” (SANOFI, priority 2013, dated 2015).

One may read the EC50 as the midpoint of the concentration-response curve.

Like-named read-outs stand apart in the source and are kept apart here.

In the assay the target is T1, human apelin receptor (Homo sapiens, UniProt P35414).
T1 construct: expressed in transfected cells
T1 sequence (P35414 1-380): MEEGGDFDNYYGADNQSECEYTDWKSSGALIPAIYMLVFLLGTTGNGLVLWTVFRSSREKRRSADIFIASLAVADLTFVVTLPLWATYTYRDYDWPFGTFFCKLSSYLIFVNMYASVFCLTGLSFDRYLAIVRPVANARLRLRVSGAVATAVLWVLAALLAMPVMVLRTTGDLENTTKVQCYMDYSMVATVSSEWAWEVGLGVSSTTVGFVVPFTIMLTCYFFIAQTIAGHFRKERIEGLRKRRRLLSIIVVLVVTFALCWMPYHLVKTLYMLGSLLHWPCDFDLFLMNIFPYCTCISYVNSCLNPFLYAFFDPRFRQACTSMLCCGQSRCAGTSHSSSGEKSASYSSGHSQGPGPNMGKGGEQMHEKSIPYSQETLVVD
The assay is described as follows: Determination of agonism on the human apelin receptor by a calcium fluorescence assay (FLIPR). Format: cell-based. Particulars: HEK293 cells stably transfected with human apelin receptor and Giaq protein, Fluo-4 calcium fluorescence. From the text:
Determination of Agonism on the Human Apelin Receptor by a Calcium Fluorescence Assay (FLIPR)
The assay is based on the detection of intracellular calcium changes detected by the selective, calcium-chelating dye Fluo-4 (Molecular Probes). A large fluorescence intensity increase is observed upon calcium association with Fluo-4. The dye is delivered to the cell interior using an acetoxymethylester form of Fluo-4, where the intracellular esterase activity results in the charged species being released and trapped within the cytoplasm of the cell. […] By co-expressing the human apelin receptor and a promiscuous Giaq protein, agonism of the apelin receptor couples to phospholipase-C resulting in intracellular calcium mobilization.
The HEK293 cells were stably transfected with the human apelin receptor and the Giaq protein. Cells were selected and maintained in a log phase of growth at 37° and 5% CO2 in the Iscove's minimal essential medium, 10% fetal calf serum, 1× Penicillin-Streptomycin, 400 μg/mL G418. One day prior the assay, cells were passaged by accutase and plated at a density of 50,000 cells/well onto a 96-well plates with black border but clear bottom (Costar, cat#3904) in a final volume of 200 μl growth medium.
In order to load the cells the next day with the calcium-sensitive dye, growth medium was carefully replaced by dye solution (100 μl/well) containing Fluo-4 (4 μM) in basic measurement buffer (135 mM NaCl, 5 mM KCl, 1 mM magnesium sulphate, 5 mM glucose, 20 mM Hepes, 2.5 mM probenecid; adjusted to pH 7.4). Cells were incubated for 1 h at 37° C., and then washed 3× with buffer containing no dye. The washer was programmed to leave a remaining volume of 150 μl after the third wash in the plate.
During the dye-loading of the cells, a serial compound dilution was performed in a separate 96-well plate with overall 4× increased concentrations. Small aliquots of DMSO stock solutions of the compounds (10 mM in 100% DMSO were aliquoted into 150 μl buffer in the first rows of the 96-well plates, and then serially diluted by a factor of 1:3 transferring each time 30 μl to the next rows already containing 60 μl buffer. All compounds were tested in a least 7 concentrations, each condition was performed in triplicates. As comparator, we used freshly prepared apelin-13 solutions, for which also a concentration-response curve was determined at each measurement day. The compound plate was incubated for 10 min after the final dilutions steps at 37° C. before transferring the dye-loaded cell plate and the compound plate into a FLIPR Tetra reader (Molecular Devices). Measurement within this reader started by pipetting the agonist solution (50 μl) on the cell plate. Overall perform 60 reads were performed with an interval of 2 sec. The maximum of the fluorescence transient was used to calculate the agonistic response of the cells. In order to normalize this response, which may vary from plate to plate we set the maximum fluorescence achieved by 1 μM apelin-13 on this plate as 100%.
EC-50 values for apelin-13 and the apelin receptor compounds described in this patent were determined by standard algorithms using a specific software package.

Consider `CCC(CC)n1c(Cc2cccs2)nc2cc(C(=O)N[C@@H](CC(C)C)C(=O)N3CCN(c4ccccn4)CC3)ccc21` [Example 312, 1-(1-Ethyl-propyl)-2-thiophen-2-ylmethyl-1H-benzoimidazole-5-carboxylic acid [(S)-3-methyl-1-(4-pyridin-2-yl-piperazine-1-carbonyl)-butyl]-amide], for which the 50% effective concentration (EC50) (read-out: EC50 (APJ agonism)) was determined as 2960 nM.
In the case of `CCC(CC)n1c(Cc2cccs2)nc2cc(C(=O)NC3(CC(=O)O)CCCCC3)ccc21` [Example 64, (1-{[1-(1-Ethyl-propyl)-2-thiophen-2-ylmethyl-1H-benzoimidazole-5-carbonyl]-amino}-cyclohexyl)-acetic acid], under “read-out: EC50 (APJ agonism)”, the EC50 turned out to be 176 nM.
Still for that read-out and setting: as for `CCC(CC)n1c(Cc2ccco2)nc2cc(C(=O)NC(C)(CCSC)C(=O)O)ccc21` (centres unmarked) [Example 14, 2-{[1-(1-Ethyl-propyl)-2-furan-2-ylmethyl-1H-benzoimidazole-5-carbonyl]-amino}-2-methyl-4-methylsulfanyl-butyric acid], the figure is 1340 nM.
Same read-out and setting: in the case of `CCC(CC)n1c(Cc2cscn2)nc2cc(C(=O)N[C@H](CO)CC(C)C)ccc21` [Example 205, 1-(1-Ethyl-propyl)-2-thiazol-4-ylmethyl-1H-benzoimidazole-5-carboxylic acid ((S)-1-hydroxymethyl-3-methyl-butyl)-amide] it was 1750 nM; in that of `CC(C)C[C@@H](CCC(=O)O)NC(=O)c1ccc2c(c1)nc(Cc1cccs1)n2[C@@H]1CCCC[C@H]1C` [Example 70, (R)-6-Methyl-4-{[1-((1R,2R)-2-methyl-cyclohexyl)-2-thiophen-2-ylmethyl-1H-benzoimidazole-5-carbonyl]-amino}-heptanoic acid], 179 nM; in that of `CCCCOC[C@H](CC(C)C)NC(=O)c1ccc2c(c1)nc(Cc1cccs1)n2C(CC)CC` [Example 210, 1-(1-Ethyl-propyl)-2-thiophen-2-ylmethyl-1H-benzoimidazole-5-carboxylic acid ((S)-1-butoxymethyl-3-methyl-butyl)-amide], 10200 nM.
As for `CCCC[C@H](NC(=O)c1ccc2c(c1)nc(Cc1cccs1)n2C1CCCCC1C)C(=O)O` (single isomer, unassigned) [Example 420], the EC50 (read-out: EC50 (APJ agonism)) was 14 nM.
On the same count and under the same terms, in the case of `C[C@@H]1CCCC[C@H]1n1c(Cc2cccs2)nc2cc(C(=O)NC(CC3CCCC3)C(=O)O)ccc21` (single isomer, unassigned) [Example 442] it was 134 nM; in that of `CCC(CC)n1c(Cc2cccs2)nc2cc(C(=O)N[C@@H](CC(C)C)C(=O)N3CC[C@H](OCc4ccccc4)C3)ccc21` [Example 390, 1-(1-Ethyl-propyl)-2-thiophen-2-ylmethyl-1H-benzoimidazole-5-carboxylic acid [(S)-1-((S)-3-benzyloxy-pyrrolidine-1-carbonyl)-3-methyl-butyl]-amide], 10900 nM.
Still for that read-out and setting: in the case of `CCCCC(NC(=O)c1ccc2c(c1)nc(Cc1cccs1)n2C(CC)CC)C(C)(C)C(=O)O` (centres unmarked) [Example 58, 3-{[1-(1-Ethyl-propyl)-2-thiophen-2-ylmethyl-1H-benzoimidazole-5-carbonyl]-amino}-2,2-dimethyl-heptanoic acid] it was 172 nM.
The same measure, in the same setting: as for `CCC(CC)n1c(Cc2cccs2)nc2cc(C(=O)N[C@@H](CC(C)C)C(=O)N[C@H]3C[C@@H]3c3ccccc3)ccc21` [Example 259, 1-(1-Ethyl-propyl)-2-thiophen-2-ylmethyl-1H-benzoimidazole-5-carboxylic acid [(S)-3-methyl-1-((1S,2R)-2-phenyl-cyclopropylcarbamoyl)-butyl]-amide], the figure is 6650 nM; as for `CCC(CC)n1c(Cc2cccs2)nc2cc(C(=O)N[C@@H](CC(C)C)C(=O)N3CCN(c4cccc(C(F)(F)F)c4)CC3)ccc21` [Example 269, 1-(1-Ethyl-propyl)-2-thiophen-2-ylmethyl-1H-benzoimidazole-5-carboxylic acid {(S)-3-methyl-1-[4-(3-trifluoromethyl-phenyl)-piperazine-1-carbonyl]-butyl}-amide], 18500 nM.
As for `CCC(CC)n1c(Cc2ccsc2)nc2cc(C(=O)N[C@@H](CC(C)C)C(=O)O)ccc21` [Example 117, (S)-2-{[1-(1-Ethyl-propyl)-2-thiophen-3-ylmethyl-1H-benzoimidazole-5-carbonyl]-amino}-4-methyl-pentanoic acid], where the note is “read-out: EC50 (APJ agonism)”, the half-maximal effective concentration (EC50) turned out to be 419 nM.
Same read-out and setting: in the case of `CC(C)C[C@@H](CC(=O)O)NC(=O)c1ccc2c(c1)nc(Cc1cccs1)n2C1CCCCC1C(F)(F)F` (stereo partly drawn) [Example 102, (S)-5-Methyl-3-{[2-thiophen-2-ylmethyl-1-(2-trifluoromethyl-cyclohexyl)-1H-benzoimidazole-5-carbonyl]-amino}-hexanoic acid] it was 247 nM.
On the same count and under the same terms, in the case of `C[C@@H]1CCCC[C@H]1n1c(Cc2cccs2)nc2cc(C(=O)NC(CC3CCCCCC3)C(=O)O)ccc21` (single isomer, unassigned) [Example 450] it was 720 nM; in that of `CCC(CC)n1c(Cc2cccs2)nc2cc(C(=O)N[C@H](CCC(=O)O)[C@@H](C)CC)ccc21` [Example 71, (4R,5S)-4-{[1-(1-Ethyl-propyl)-2-thiophen-2-ylmethyl-1H-benzoimidazole-5-carbonyl]-amino}-5-methyl-heptanoic acid], 73 nM; in that of `CCC(C)NC(=O)[C@H](CC(C)C)NC(=O)c1ccc2c(c1)nc(Cc1cccs1)n2C(CC)CC` (stereo partly drawn) [Example 218, 1-(1-Ethyl-propyl)-2-thiophen-2-ylmethyl-1H-benzoimidazole-5-carboxylic acid ((S)-1-sec-butylcarbamoyl-3-methyl-butyl)-amide], 2010 nM.
Still for that read-out and setting: as for `CCCC(NC(=O)c1ccc2c(c1)nc(Cc1cccs1)n2C(CC)CC)C(C)(C)C(=O)O` (single isomer, unassigned) [Example 466], the figure is 4720 nM; as for `C[C@@H]1CCCC[C@H]1n1c(Cc2cncs2)nc2cc(C(=O)NC(CC(=O)O)CC3CCCCC3)ccc21` (stereo partly drawn) [Example 65, 4-Cyclohexyl-3-{[1-((1R,2R)-2-methyl-cyclohexyl)-2-thiazol-5-ylmethyl-1H-benzoimidazole-5-carbonyl]-amino}-butyric acid], 56 nM.
Regarding `CCC(CC)n1c(Cc2cccs2)nc2cc(C(=O)N[C@@H](CC(C)C)C(=O)NC3C[C@H]4CC[C@@H](C3)N4C)ccc21` (stereo partly drawn) [Example 273, 1-(1-Ethyl-propyl)-2-thiophen-2-ylmethyl-1H-benzoimidazole-5-carboxylic acid [(S)-3-methyl-1-((1R,5S)-8-methyl-8-aza-bicyclo[3.2.1]oct-3-ylcarbamoyl)-butyl]-amide], where the note is “read-out: EC50 (APJ agonism)”, the concentration for a half-maximal effect (EC50) amounted to 212 nM.
Take `CCC(CC)n1c(CC2CCCC2)nc2cc(C(=O)N[C@H](CO)CCSC)ccc21` [Example 178, 2-Cyclopentylmethyl-1-(1-ethyl-propyl)-1H-benzoimidazole-5-carboxylic acid ((S)-1-hydroxymethyl-3-methylsulfanyl-propyl)-amide]: the EC50 (EC50 (APJ agonism)) is 17400 nM.
Consider `CCC(CC)n1c(Cc2cccs2)nc2cc(C(=O)N[C@@H](CC(C)C)CS(=O)(=O)c3nnc[nH]3)ccc21` [Example 484, 1-(1-Ethyl-propyl)-2-thiophen-2-ylmethyl-1H-benzoimidazole-5-carboxylic acid [(S)-3-methyl-1-(4H-[1,2,4]triazole-3-sulfonylmethyl)-butyl]-amide], for which the EC50 (read-out: EC50 (APJ agonism)) was found to be 14 nM.
Take `CCC(CC)n1c(Cc2cccs2)nc2cc(C(=O)N[C@@H](CC(C)C)C(=O)N3CCN(c4ccccc4OC)CC3)ccc21` [Example 315, 1-(1-Ethyl-propyl)-2-thiophen-2-ylmethyl-1H-benzoimidazole-5-carboxylic acid {(S)-1-[4-(2-methoxy-phenyl)-piperazine-1-carbonyl]-3-methyl-butyl}-amide]: the concentration for a half-maximal effect (EC50) (read-out: EC50 (APJ agonism)) was 2450 nM.
